Where a SMILES comes first, the peptide text is derived from it.
How the values were obtained:
sepsis (CLP) = assay: CLP with or without quercetin (HSP 70 inhibitor): survival, lung HSP/NOS, metabolism, TNF; assay type: in vivo, Sprague-Dawley rats; details: quercetin 400 mg/kg IP 6 hours pre-CLP
Method: Methods: Male Sprague-Dawley rats were divided into 5 groups. Two groups were treated with 400 mg/kg of quercetin (Q) IP (HSP 70 inhibitor) 6 hours pre-CLP. […] The final group (CONT, n=6) received no treatment. Five-day survival was monitored. In separate studies, lung was harvested 24-hours post-CLP and tissue metabolism analyzed by 31P- and 1H-MRS. A final study analyzed blood for TNF- at 6 hours post-CLP and lung tissue 6 hours post-CLP for HSP-70, iNOS, eNOS, and activated heat shock factor-1 (HSF-1).

[1] = system: polymicrobial sepsis and peritonitis (CLP); assay: CLP peritonitis/polymicrobial sepsis, GLN 30 minutes after induction, with or without quercetin; assay type: in vivo, rat; details: quercetin with GLN
Source text: Cecal ligation and puncture (CLP) in the rat was chosen as the appropriate model.

[2] = system: polymicrobial sepsis (2CLP); assay: Cecal-ligation and double-puncture (2CLP) sepsis: survival, cytokines, lung HSP 72; assay type: in vivo, Sprague-Dawley rats
Source text: Further, increased Interleukin-18 (IL-18) levels appear to play a critical role in cytokine-induced organ failure and can be predictive of mortality in sepsis patients.
Increased Interleukin-18 (IL-18) levels appear to play a critical role in cytokine-induced organ failure and can be predictive of mortality in sepsis patients.

[3] = system: polymicrobial sepsis (CLP); assay: Cecal ligation and puncture (CLP): lung and heart tissue metabolism by MRS, survival; assay type: in vivo, Sprague-Dawley rats; details: single large dose following onset of sepsis, CLP rat
Method: Survival was monitored for five days. In a separate group of animals (n=4/group), lung and heart tissue was harvested 24 hours post-CLP and tissue metabolism was analyzed by ^1H-MRS and ^31P-MRS.

[4] = system: myocardial ischemia/reperfusion injury; details: single dose 18 hours prior to myocardial injury, rat
congestive heart failure = details: 4 weeks of supplementation (Azuma et al 1983); cited from earlier work

Compound: O=c1c(O)c(-c2ccc(O)c(O)c2)oc2cc(O)cc(O)c12 [Q, quercetin, reference compound]
- effect on TNF- or NOS expression (sepsis (CLP)): No Q effect
- HSF-1 activation and subsequent HSP70 expression (sepsis (CLP); with GLN): Inhibition
- effect on GLN's improvements in lung tissue metabolic dysfunction (sepsis (CLP); with GLN): blocked
- effect on GLN's survival benefit (sepsis (CLP); with GLN): abrogated
- effect on GLN attenuation of tissue metabolic dysfunction [1]: inhibited
- effect on GLN improvement of survival [1]: inhibited
- effect on GLN-enhanced HSP 70 expression and HSF-1 activation [1]: blocked

Compound: C[C@H](N)C(=O)N[C@@H](CCC(N)=O)C(=O)O [alanyl-glutamine] (H-Ala-Gln-OH)
- lung HSP 72 expression versus control ([2]; following 2CLP): restore normal heat shock protein expression
- inflammatory cytokine release ([2]; single large dose following onset of sepsis, CLP rat): attenuate
- cellular metabolism in the lung [3]: improve
- myocardial function following ischemia and reperfusion injury [4]: improve myocardial function

Compound: NCCS(=O)(=O)O [taurine]
- dyspnea, palpitation, crackles, edema, and New York Heart Association functional class (congestive heart failure): highly significant improvement
